Laboratory results from patent US9040573B2, “Anti-fungal agent” (Nihon Nohyaku Co., Ltd., priority 2011, dated 2015).
In brackets after ≈: the same amount, converted by molar mass.

Assays:
Scytalidium hyalinum = experiment: Antifungal Activity Test 2: MIC by broth microdilution method (Alamar Blue); format: cell-based; conditions: for MIC: growth inhibited by 80% or more
Protocol: (§1) The minimum inhibitory concentration (MIC) was measured by a broth microdilution method. That is, RPMI1640 medium (Sigma-Aldrich) was buffered with 0.165 M morpholine propanesulfonic acid (MOPS, Wako Pure Chemical Industries, Ltd.) to pH 7.0, and a given amount of a solution of the drug in DMSO was added thereto to prepare 2-fold dilution series within the range of 0.00098-4 μg/mL. This was added to a 96-well microplate by 100 μL, a fungal inoculum solution (100 μL, final concentration of fungi to be added: 1.0×10^4 cells/mL) was added, and the mixture was cultured at 35° C. An Alamar Blue reagent was added in advance to the culture medium (final addition concentration: 10%) and, at the time point when the Alamar Blue reagent in the drug-free growth control group changed from blue to red, the culture was discontinued and the absorbance (differential optical density at 570 nm based on 590 nm served as reference) measured. The minimum concentration of the drug that inhibited the growth of the fungus in the growth control group by 80% or more was taken as MIC. The concentration to be MIC (MIC90) in 9 strains out of the 10 strains (90%) measured was determined.
Scytalidium hyalinum strain of clinical isolate available from CBS (Netherlands) was used. The fungus was pre-cultured in an SDA medium, 0.1% (w/v) Tween 80-containing sterile saline was added to give a suspension, which was filtered through gauze to collect arthrospore. This was suspended in 0.1% (w/v) Tween 80-containing sterile saline, and added to a 20% Alamar Blue-containing medium to 2×10^4 cells/mL to give a fungal inoculum solution.
(§2) Each drug was used after dissolving in DMSO (dimethyl sulfoxide).
The test method was the same as in the aforementioned antifungal activity test 1, and the minimum concentration of the drug that inhibited the growth of the fungus in the growth control group by 80% or more was taken as MIC. The MIC range of the 4 strains measured and the geometric mean (GM) of each drug were determined.

Scytalidium dimidiatum = experiment: Antifungal Activity Test 1: MIC by broth microdilution method (Alamar Blue); format: cell-based; conditions: for MIC: growth inhibited by 80% or more
From the text: Scytalidium dimidiatum strain of clinical isolate obtained by separation and identification from nail or stratum corneum of patients with superficial mycosis was used. The fungi pre-cultured on an SDA medium was suspended in 0.1% (w/v) Tween 80-containing sterile saline and the suspension was filtered through gauze to collect arthrospore. This was suspended in 0.1% (w/v) Tween 80-containing sterile saline, and added to a 20% Alamar Blue-containing medium to 2×10^4 cells/mL to give a fungal inoculum solution.
as §2, §1
Reference documents for measurement method: Takako Shinoda et al.: opinion proposed by Committee for Clinical Laboratory Standards of The Japanese Society for Medical Mycology (1995-1997), Method for antifungal susceptibility testing of filamentous fungus, Medical Mycology Journal, 40: 239-257, 1999. Clinical Laboratory Standards Institute/National Committee for Clinical Laboratory Standards. Reference method for broth dilution antifungal susceptibility testing of filamentous fungus. Approved Standard M38-A2. Wayne, Pa.: National Committee for Clinical Laboratory Standards, 2008. Test Results

MIC (Scytalidium hyalinum; clinical isolate CBS200.88): 0.5 µg/mL (≈ 0.541 µM) | MIC (Scytalidium hyalinum; clinical isolate CBS545.95): 1 µg/mL (≈ 1.08 µM) | MIC (Scytalidium hyalinum; clinical isolate CBS601.85): 0.5 µg/mL (≈ 0.541 µM) | MIC (Scytalidium hyalinum; clinical isolate CBS619.84): 0.5 µg/mL (≈ 0.541 µM) | GM (geometric mean of MIC) (Scytalidium hyalinum; geometric mean of the 4 strains measured): 0.59 µg/mL | MIC range (Scytalidium hyalinum; range of the 4 strains measured): 0.5 to 1 µg/mL | MIC (Scytalidium dimidiatum; clinical isolate 530129): 0.25 µg/mL (≈ 0.271 µM) | MIC (Scytalidium dimidiatum; clinical isolate 530142): 0.13 µg/mL (≈ 0.141 µM) | MIC (Scytalidium dimidiatum; clinical isolate 530251): 0.25 µg/mL (≈ 0.271 µM) | MIC (Scytalidium dimidiatum; clinical isolate 530621): 0.25 µg/mL (≈ 0.271 µM) | MIC (Scytalidium dimidiatum; clinical isolate 530633): 0.25 µg/mL (≈ 0.271 µM) | MIC (Scytalidium dimidiatum; clinical isolate 530914): 0.13 µg/mL (≈ 0.141 µM) | MIC (Scytalidium dimidiatum; clinical isolate 530946): 0.25 µg/mL (≈ 0.271 µM) | MIC (Scytalidium dimidiatum; clinical isolate 530999): 0.5 µg/mL (≈ 0.541 µM) | MIC (Scytalidium dimidiatum; clinical isolate 531581): 0.25 µg/mL (≈ 0.271 µM) | MIC (Scytalidium dimidiatum; clinical isolate 531869): 0.25 µg/mL (≈ 0.271 µM) | MIC90 (Scytalidium dimidiatum; concentration to be MIC in 9 strains out of the 10 strains (90%)): 0.25 µg/mL (≈ 0.271 µM)
SMILES: C[C@@H]1[C@H](O)[C@@H](C)/C=C/C=C/C=C/C=C/C=C/C=C/C=C/[C@H](O[C@@H]2O[C@H](C)[C@@H](O)[C@H](N)[C@@H]2O)C[C@@H]2O[C@](O)(C[C@@H](O)C[C@@H](O)[C@H](O)CC[C@@H](O)C[C@@H](O)CC(=O)O[C@H]1C)C[C@H](O)[C@H]2C(=O)O [AMPB, amphotericin B]
